Source: article PMC12747936, “Rhamnose alleviates the proinflammatory response during endotoxemia via the CEACAM1/LGALS9-p38 axis” (Acta Biochimica et Biophysica Sinica, 2025)

What was measured:
CEACAM1 (THP-1-dMs) = target: T1, CEACAM1 (THP-1-dMs) (Homo sapiens, UniProt P13688); experiment: CETSA and DARTS, western blot; format: biochemical; settings: THP-1-dM lysate; CETSA 100 μM rhamnose, 2 h, 37-67°C; DARTS with pronase 1:1000, TNC buffer pH 8.0
T1 construct: endogenous protein in lysate of PMA-differentiated THP-1 macrophages
T1 sequence (P13688 35-526): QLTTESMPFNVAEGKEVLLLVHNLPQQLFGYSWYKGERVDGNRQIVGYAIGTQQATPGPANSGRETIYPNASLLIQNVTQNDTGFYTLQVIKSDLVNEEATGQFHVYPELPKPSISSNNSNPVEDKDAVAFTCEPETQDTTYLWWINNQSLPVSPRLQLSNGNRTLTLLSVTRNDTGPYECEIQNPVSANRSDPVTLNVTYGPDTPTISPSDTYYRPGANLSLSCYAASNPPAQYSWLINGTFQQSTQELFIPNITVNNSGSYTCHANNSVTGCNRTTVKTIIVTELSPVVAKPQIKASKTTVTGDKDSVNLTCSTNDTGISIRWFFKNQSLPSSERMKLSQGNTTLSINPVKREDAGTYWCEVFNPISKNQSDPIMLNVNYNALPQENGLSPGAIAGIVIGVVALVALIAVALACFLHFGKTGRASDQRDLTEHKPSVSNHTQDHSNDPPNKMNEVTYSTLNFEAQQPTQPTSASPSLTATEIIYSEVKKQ

CEACAM1 (BMDMs) = target: T2, CEACAM1 (BMDMs) (Mus musculus, UniProt P31809); experiment: CETSA and DARTS, western blot; format: biochemical; settings: BMDM lysate; CETSA 100 μM rhamnose, 2 h, 37-67°C; DARTS with pronase 1:1000, TNC buffer pH 8.0
T2 construct: endogenous protein in lysate of murine bone marrow-derived macrophages; band 150-250 kDa region discussed
T2 sequence (P31809 35-521): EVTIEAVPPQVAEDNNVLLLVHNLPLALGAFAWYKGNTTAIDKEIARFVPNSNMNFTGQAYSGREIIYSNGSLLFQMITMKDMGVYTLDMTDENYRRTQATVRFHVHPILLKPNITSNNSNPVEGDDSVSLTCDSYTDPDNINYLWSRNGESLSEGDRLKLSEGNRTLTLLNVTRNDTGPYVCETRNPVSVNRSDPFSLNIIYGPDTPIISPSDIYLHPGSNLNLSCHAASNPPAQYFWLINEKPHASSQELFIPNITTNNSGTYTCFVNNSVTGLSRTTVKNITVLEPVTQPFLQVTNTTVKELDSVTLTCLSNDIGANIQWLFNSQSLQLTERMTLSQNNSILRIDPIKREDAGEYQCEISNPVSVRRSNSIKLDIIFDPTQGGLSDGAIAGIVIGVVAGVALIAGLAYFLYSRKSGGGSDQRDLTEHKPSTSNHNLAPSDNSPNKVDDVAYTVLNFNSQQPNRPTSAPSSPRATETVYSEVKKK

## C[C@@H]1OC(O)[C@H](O)[C@H](O)[C@H]1O (some centres unmarked) [rhamnose]
CEACAM1 (THP-1-dMs)
  CETSA and DARTS, western blot: rhamnose treatment increased the resistance of the CEACAM1 protein to protease hydrolysis
CEACAM1 (BMDMs)
  CETSA and DARTS, western blot: CETSA also demonstrated that rhamnose reduced the degradation rate of CEACAM1 in heat-denatured BMDMs
